For series [1] the following is noted: in vivo, cited from earlier work.
Series [2] in a line: Mean Equivalent Daily Dose (MEDD) conversion table for opioids. The series is classed as in vivo.
For series [3], the system named is young adult Wistar rats. The following applies: intraperitoneal.
Series [4] concerns human volunteers. The series can be described thus: Human drug liking study. The following applies: any dose of oxycodone alone vs same dose combined with 100 mg flupirtine, oral capsule.

“And” between values parts separate entries of the source, which are not always exact repeats. Identical values can stand only once. Like-named read-outs stand apart in the source and are kept apart here.

Turning to `COc1cccc(C2(O)CCCCC2CN(C)C)c1` (stereo not drawn) [Tramadol], the MEDD-Factor is recorded as 0.05 in series [1] (po) and 0.1 in series [1] (sc).

With `COc1ccc2c3c1O[C@H]1C(=O)CC[C@H]4[C@@H](C2)N(C)CC[C@]314` [Hydrocodone], in series [1] (po), the MEDD-Factor is 0.4.

Take `CN1CC[C@]23c4c5ccc(O)c4O[C@H]2[C@@H](O)C=C[C@H]3[C@H]1C5` [Morphine]: in series [2] (administered intravenously), the “dose equivalent to a 100 mg dose of morphine administered orally” value was determined as 40 mg. Besides, the sedation result in series [3] (1.6 mg/kg morphine) was “not sedating”. For the same compound, the MEDD-Factor in series [1] (iv) was 1; in series [1] (po), 0.4; in series [1] (sc), 1.

On to `COc1ccc2c3c1O[C@H]1C(=O)CC[C@@]4(O)[C@@H](C2)N(C)CC[C@]314` [Oxycodone], for which the “subject preference (drug liking)” value in series [4] is given as “preferred to, or no less preferred to”. The “dose equivalent to a 100 mg dose of morphine administered orally” value in series [2] (orally administered) came to 63 mg. Also, the MEDD-Factor in series [1] (po) is 0.63; in series [1] (sc), 1.5.

As to `CN1CC[C@]23CCCC[C@H]2[C@H]1Cc1ccc(O)cc13` [Levo-dromoran], the MEDD-Factor in series [1] (sc) is 5; in series [1] it was 0.25.

As to `CCOC(=O)C1(c2ccccc2)CCN(C)CC1` [Meperidine], the MEDD-Factor in series [1] (iv) was 0.1; in series [1] (po), 0.05; in series [1] (sc) it was 0.1.

`COc1ccc2c3c1O[C@H]1[C@@H](O)C=C[C@H]4[C@@H](C2)N(C)CC[C@@]341` [Codeine]: the MEDD-Factor is 0.05 in series [1] (po); 0.1 in series [1] (sc); 0.1 and 0.05 in series [1].

In the case of `CCC(=O)C(CC(C)N(C)C)(c1ccccc1)c1ccccc1` (stereo not drawn) [Methadone], the MEDD-Factor in series [1] (iv) is listed as 8; in series [1] (po) it was 4; in series [1] (sc), 8.

As for `CC(=O)Oc1ccc2c3c1O[C@H]1[C@@H](OC(C)=O)C=C[C@H]4[C@@H](C2)N(C)CC[C@@]341` [Diamorphine], the MEDD-Factor is 0.65 in series [1] (po) and 1.3 in series [1] (sc).

As for `CCOC(=O)Nc1ccc(NCc2ccc(F)cc2)nc1N` [flupirtine], the sedation result in series [3] (10 mg/kg flupirtine, criteria of Goodchild et al. 2008) was “non-sedating”; in series [3] (20 mg/kg flupirtine, criteria of Goodchild et al. 2008), “sedating”.

These data come from patent US20120059024A1 (priority 2009, published 2012).
